Here are results for 8 compounds from US20230279024A1, “TRIAZINE COMPOUND AND COMPOSITION AND USE THEREOF” (BEIJING FINDCURE BIOSCIENCES, LTD., priority 2020, published 2023).

Series [1] deals with AXL (h) kinase (Homo sapiens (Human), UniProt P30530). The series is described as follows: AXL (h) kinase activity test (EZ Reader mobility shift, FLPeptide30). The format is biochemical. Conditions: ATP 100 μM, AXL 1 nM. On the procedure: The effect of the disclosed compounds as protein kinase inhibitors can be evaluated by the following experiments. The AXL (h) kinase activity of the compounds of the invention is tested by the following methods:
Reagents used in the experiment were AXL (Carna Bioscience, Cat No.: 08-107) and FLPeptide30 (PerkinElmer, Cat No.: 760430). The instruments involved were thermotank (Thermo Scientific), oscillator (QILINBEIER), EZ Reader (PerkinElmer, Cat No.: 122919), Non-contact stage pipetting system (Labcyte Inc., Cat No.: Echo 550), and non-contact nanoliter pipetting system (TECAN, Cat No.: EVO200).
Compound dilution: 1) Dissolve the compound in DMSO to the appropriate concentration; 2) Using TECAN EVO200 to dilute 10 concentrations in 384 microplates by three times gradient, the highest concentration is 1 mM; Echo550 was used to transfer 20 nL solution from the dilution plate to the test plate.
2) Add 15 μL solution 1 to each well of the test plate and incubate at room temperature for 30 minutes.
4) Add 5 μL solution 2 to start the reaction, and the final volume of each well is 20 μL.
5) Incubated at 25° C. for 90 min, and then added 75 μL stop solution (containing 0.5 M EDTA) to terminate the reaction.
6) The sample of each well was analyzed using EZ reader.
1) Based on the measured conversion rate (CR), the Remaining Activity (%) of the kinase was calculated according to the following function:
2) XLFit (Equation 201) software was used to fit IC50.
The above methods can be used to obtain the inhibitory IC50 and/or inhibitory constant Ki.

Series [2] deals with CYP3A4/5. The series is described as follows: Inhibition of human liver microsomes CYP450, 3A4/5. Type of series: in vitro ADME. Conditions: compounds 10 μM (positive control: concentration not given). For orientation: Liver microsomes are vesicles of endoplasmic reticulum, rich in cytochrome P450 enzymes.
Series [3] deals with Ba/F3 AXL cells. The series is described as follows: Cell activity test: growth inhibition of Ba/F3 AXL cell line (CTG, 72 h). The format is cell-based. Conditions: Mus musculus, BaF3. The method, then:
This experiment was conducted by detecting the inhibitory effect of compounds on the growth of Ba/F3 AXL cell line and Ba/F3 parental cell line. Cells in logarithmic growth stage were harvested and counted by platelet counter. Trypan blue rejection method was used to detect cell viability to ensure that the cell viability was above 90%. Adjust cell concentration; 90 μL cell suspension was added to 96-well plates, respectively; Cells in 96-well plates were cultured overnight at 37° C., 5% CO2 and 95% humidity. A 10-fold drug solution was prepared, with the highest concentration of 10 μM, and a total of 9 concentrations were diluted at 3.16 times the ratio. 10 μL drug solution was added to each well of the 96-well plate inoculated with cells, and three wells were set for each drug concentration; 96-well plates were incubated at 37° C., 5% CO2 and 95% humidity for 72 h, and CTG analysis was performed. Thaw the CTG reagent and balance the cell plates to room temperature for 30 minutes. Add the same volume of CTG solution to each well and vibrate on a fixed-rail shaker for 5 minutes to crack the cells. Place the cell plates at room temperature for 20 minutes to stabilize the cold light signal and read the cold light value. The GraphPad Prism 5.0 software was used to analyze the data, and the nonlinear S-curve regression was used to fit the data to obtain the dose-effect curve, and the IC50 value was calculated accordingly. Cell survival rate (%)=(Lum drug to be tested −Lum culture medium control)/(Lum cell control−Lum culture medium control)×100%.

A value given as a limit tells only on which side of the number the result lay.

AXL (h) kinase, sequence (P30530 473-894): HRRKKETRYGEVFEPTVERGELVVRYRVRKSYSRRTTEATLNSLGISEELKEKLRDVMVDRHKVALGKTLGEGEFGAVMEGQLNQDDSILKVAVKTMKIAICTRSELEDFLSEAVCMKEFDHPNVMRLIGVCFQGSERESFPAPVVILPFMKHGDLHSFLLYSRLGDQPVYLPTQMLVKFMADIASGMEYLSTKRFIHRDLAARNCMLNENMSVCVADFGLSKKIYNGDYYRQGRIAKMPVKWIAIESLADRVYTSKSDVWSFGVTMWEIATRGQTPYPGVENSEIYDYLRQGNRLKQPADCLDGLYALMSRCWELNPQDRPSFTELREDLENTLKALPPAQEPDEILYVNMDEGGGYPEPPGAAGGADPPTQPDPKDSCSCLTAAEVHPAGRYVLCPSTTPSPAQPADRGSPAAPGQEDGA

As for `Nc1ncnn2c(C3CCN(C(=O)C4CC4)CC3)cc(-c3ccc(NC(=O)c4c5n(n(-c6ccccn6)c4=O)CCCC5)cc3)c12` [example 36, N-(4-(4-amino-7-(1-(cyclopropanecarbonyl)piperidin-4-yl)pyrrolo[2,1-f][1,2,4]triazin-5-yl)phenyl)-2-oxo-1-(pyridin-2-yl)-1,2,4,5,6,7-hexahydropyrazolo[1,5-a]pyridine-3-carboxamide], the results for the IC50 in series [1] and in series [3] were 5 to 50 nM and < 5 nM, respectively. Also, the “Inhibitory rate (%) 3A4/5” value in series [2] is listed as “No inhibition”.

For `Nc1ncnn2c(C3CCNCC3)cc(-c3ccc(NC(=O)c4c5n(n(-c6ccccc6)c4=O)CCC5)cc3)c12` [example 5, N-(4-(4-amino-7-(piperidin-4-yl)pyrrolo[2,1-f][1,2,4]triazin-5-yl)phenyl)-2-oxo-1-phenyl-2,4,5,6-tetrahydro-1H-pyrrolo[1,2-b]pyrazole-3-carboxamide], the IC50 in series [1] and in series [3] was > 100 nM each time.

On to `Nc1ncnn2c1c(-c1ccc(NC(=O)c3c4n(n(-c5ccccn5)c3=O)CCCC4)cc1)cc2[C@H]1CC[C@H](O)CC1` [example 20, N-(4-(4-amino-7-((1r,4r)-4-hydroxycyclohexyl)pyrrole[2,1-f][1,2,4]triazin-5-yl)phenyl)-2-oxo-1-(pyridin-2-yl)-1,2,4,5,6,7-hexahydropyrazol[1,5-a]pyridine-3-carboxamide], for which, in series [2], the “Inhibitory rate (%) 3A4/5” value is “No inhibition”. For the same compound, in series [3], the IC50 (usually the concentration at which inhibition is half-maximal) was in the range of 5 to 50 nM.

As for `CC(C)(F)C(=O)N1CCC(c2cc(-c3ccc(NC(=O)c4c5n(n(-c6ccccn6)c4=O)CCCC5)cc3F)c3c(N)ncnn23)CC1` [example 26, N-(4-(4-amino-7-(1-(2-fluoro-2-methylpropanoyl)piperidin-4-yl)pyrrolo[2,1-f][1,2,4]triazin-5-yl)-3-fluorophenyl)-2-oxo-1-(pyridin-2-yl)-1,2,4,5,6,7-hexahydropyrazolo[1,5-a]pyridine-3-carboxamide], the half-maximal inhibitory concentration (IC50) is 5 to 50 nM in series [1] and < 5 nM in series [3].

On to `CC(C)(F)C(=O)N1CCC(c2cc(-c3ccc(NC(=O)c4c5n(n(-c6ccccn6)c4=O)CCCC5)cc3)c3c(N)ncnn23)CC1` [example 25, N-(4-(4-amino-7-(1-(2-fluoro-2-methylpropanoyl)piperidin-4-yl)pyrrolo[2,1-f][1,2,4]triazin-5-yl)phenyl)-2-oxo-1-(pyridin-2-yl)-1,2,4,5,6,7-hexahydropyrazolo[1,5-a]pyridine-3-carboxamide], for which the IC50 was 5 to 50 nM in series [1] and < 5 nM in series [3].

As for `CC(C)(O)C(=O)N1CCC(c2cc(-c3ccc(NC(=O)c4c5n(n(-c6ccccn6)c4=O)CCCC5)cc3)c3c(N)ncnn23)CC1` [example 13, N-(4-(4-amino-7-(1-(2-hydroxy-2-methylpropanoyl)piperidin-4-yl)pyrrolo[2,1-f][1,2,4]triazin-5-yl)phenyl)-2-oxo-1-(pyridin-2-yl)-1,2,4,5,6,7-hexahydropyrazolo[1,5-a]pyridine-3-carboxamide], the IC50 in series [1] and in series [3] was 5 to 50 nM in each case.

As for `CC(C)C(=O)N1CCC(c2cc(-c3ccc(NC(=O)c4c5n(n(-c6ccccn6)c4=O)CCOC5)cc3F)c3c(N)ncnn23)CC1` [example 9, N-(4-(4-amino-7-(1-isobutyrylpiperidin-4-yl)pyrrolo[2,1-f][1,2,4]triazin-5-yl)-3-fluorophenyl)-2-oxo-1-(pyridin-2-yl)-2,4,6,7-tetrahydro-1H-pyrazolo[5,1-c][1,4]oxazine-3-carboxamide], the IC50 in series [1] and in series [3] was 5 to 50 nM throughout.

Take `Nc1ncnn2c1c(-c1ccc(NC(=O)c3c4n(n(-c5ccccc5)c3=O)CCOC4)cc1)cc2[C@H]1CC[C@H](O)CC1` [example 7, N-(4-(4-amino-7-((1r,4r)-4-hydroxycyclohexyl)pyrrolo[2,1-f][1,2,4]triazin-5-yl)phenyl)-2-oxo-1-phenyl-2,4,6,7-tetrahydro-1H-pyrazolo[5,1-c][1,4]oxazine-3-carboxamide]: the IC50 in series [1] was < 5 nM. Moreover, the “Inhibitory rate (%) 3A4/5” value in series [2] is reported as “No inhibition”.
